Values quoted from earlier work in patent publication US8349821B2, “Stanol composition and the use thereof” (Raisio Nutrition Ltd., priority 1996, dated 2013).

Legend:
healthy humans = details: in vivo
male subjects = details: for Absorption rate, on average: intestinal perfusion technique, ten male subjects

Row | SMILES | Amount that can be absorbed (healthy humans) [%] | Absorption rate, on average (male subjects) [%] | Absorbability (in words) (healthy humans) | Dietary campesterol absorbed (male subjects; in vivo)
1 | CC[C@H](CC[C@@H](C)[C@H]1CC[C@H]2[C@@H]3CC=C4C[C@@H](O)CC[C@]4(C)[C@H]3CC[C@]12C)C(C)C [sitosterol] | < 5 | 4.2 |  | 
2 | CC[C@H](CC[C@@H](C)[C@H]1CC[C@H]2[C@@H]3CC[C@H]4C[C@@H](O)CC[C@]4(C)[C@H]3CC[C@]12C)C(C)C [sitostanol] |  |  | practically unabsorbable | 
3 | CC[C@H](/C=C/[C@@H](C)[C@H]1CC[C@H]2[C@@H]3CC=C4C[C@@H](O)CC[C@]4(C)[C@H]3CC[C@]12C)C(C)C [stigmasterol] |  | 4.8 |  | 
4 | CC(C)[C@H](C)CC[C@@H](C)[C@H]1CC[C@H]2[C@@H]3CC=C4C[C@@H](O)CC[C@]4(C)[C@H]3CC[C@]12C [campesterol] |  | 9.6 |  | up to 10%
